Test results published in ChEMBL document CHEMBL1201862, “PubChem BioAssay data set” (2004).
Active and inactive are the calls of the source.

What was measured:
[1] = test system: Vero; test: Vero cell toxicity, dose response, cytotoxicity control, plate reader, cherry-pick samples (AID 687020); assay type: functional, cell-based; conditions: Chlorocebus sabaeus
[2] = target: T1, Corticotropin-releasing factor receptor 2/Corticotropin-releasing factor-binding protein (Homo sapiens, UniProt P24387+Q13324); test: Dose Response confirmation of uHTS hits for small molecule antagonists of the CRF-binding protein and CRF-R2 receptor complex.; assay type: functional; conditions: read-out: IC50_Mean
T1 sequence (Q13324 whole entry): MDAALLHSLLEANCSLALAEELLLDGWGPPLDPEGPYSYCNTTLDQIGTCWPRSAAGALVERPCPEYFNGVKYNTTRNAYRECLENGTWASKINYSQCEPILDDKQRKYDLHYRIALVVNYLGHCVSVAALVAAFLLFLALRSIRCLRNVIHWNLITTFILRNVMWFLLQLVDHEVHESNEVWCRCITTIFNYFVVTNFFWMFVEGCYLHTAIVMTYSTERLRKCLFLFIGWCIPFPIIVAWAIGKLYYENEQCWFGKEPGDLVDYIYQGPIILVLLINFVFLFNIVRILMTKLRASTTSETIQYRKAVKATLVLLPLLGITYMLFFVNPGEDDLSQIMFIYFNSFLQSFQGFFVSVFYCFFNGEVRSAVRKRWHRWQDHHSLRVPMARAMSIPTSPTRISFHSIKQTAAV
T1 sequence (P24387 whole entry): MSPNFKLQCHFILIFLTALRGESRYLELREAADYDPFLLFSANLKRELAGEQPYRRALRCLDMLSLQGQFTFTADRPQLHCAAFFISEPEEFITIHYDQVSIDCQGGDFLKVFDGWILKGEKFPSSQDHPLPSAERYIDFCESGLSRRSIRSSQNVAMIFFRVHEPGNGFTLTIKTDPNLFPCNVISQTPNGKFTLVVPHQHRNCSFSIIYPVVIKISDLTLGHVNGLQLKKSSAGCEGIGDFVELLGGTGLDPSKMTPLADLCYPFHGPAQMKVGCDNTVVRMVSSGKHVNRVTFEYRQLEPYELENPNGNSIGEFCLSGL

[3] = target: T1, Corticotropin-releasing factor receptor 2/Corticotropin-releasing factor-binding protein; test: activators of CRF receptor 2 with binding protein – uHTS hits, confirmation (AID 602473); assay type: functional; conditions: read-out: EC50_Mean
[4] = inhibitors of clade B AD8 Env fusion, dose response, cell-based, cherry-pick (AID 652062); assay type: functional;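 also: luciferase signal from cell-cell fusion driven by HIV-1 clade B AD8 Env; potency is for inhibitors of fusion seen as a drop in luminescence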
[5] = cytotoxicity toward NIH3T3 fibroblasts, dose response, counter-screen, cell-based, ATP luminescence, mouse fibroblasts (AID 2010); assay type: functional;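 also: cells exposed to compound for about 90 hours before reading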
[6] = off-target signal loss in HeLa-CEM21 co-culture – HeLa F-luc CTL cells, cherry-picked, counter-screen for HIV-1 Env fusion inhibitor project, dose response (AID 652040); assay type: functional, cell-based;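 also: potency for signal decrease marking cytotoxic or nonspecific inhibition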
[7] = inhibitors of intracellular T. cruzi replication, confirmation, NIH3T3 host cells, beta-gal luminescence (AID 2044); assay type: functional, cell-based;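 also: intracellular parasites grown in NIH/3T3 mouse fibroblasts as host cells; luminescent beta-galactosidase reporter signal from transgenic T. cruzi replicating inside host cells; inhibitors lower the luminescence signal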
[8] = ZM109 Env clade C HIV-1 fusion inhibitors, dose response, HeLa effector, CEM target cells, luciferase, cherry-pick (AID 652058); assay type: functional, cell-based
[9] = CEM21 lymphoblast cell cytotoxicity, dose response, cytotoxicity control for viral fusion inhibitor project, CellTiter-Glo luminescence, cherry-picked (AID 652042); assay type: functional, cell-based;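 also: potency for signal decrease meaning cytotoxicity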
[10] = inhibitors of HIV Env-driven cell fusion, dose response, cherry-pick (AID 652057); assay type: functional, cell-based
[11] = Luminescence Cell-Based Dose Response HTS to Identify Activators of Luciferase Translation or Activity in H4 […] Cells. [Related pubchem assays: 1829 (Project Summary), 1814 (Primary HTS)]; assay type: functional
[12] = Luminescence Cell-Based Dose Confirmation HTS to Identify Activators of 5'UTR Stem-Loop Driven Alpha-Synuclein mRNA Translation in H4 Neuroglioblastoma Cells. [Related pubchem assays: 1829 (Project Summary), 1814 (Primary HTS)]; assay type: functional
[13] = target: Fructose-bisphosphate aldolase (Mycobacterium tuberculosis, UniProt P9WQA3); test: Fluorescence-based biochemical high throughput dose response assay for inhibitors of the fructose-bisphosphate aldolase (FBA) of M. tuberculosis.; assay type: functional
Fructose-bisphosphate aldolase, sequence (P9WQA3 whole entry): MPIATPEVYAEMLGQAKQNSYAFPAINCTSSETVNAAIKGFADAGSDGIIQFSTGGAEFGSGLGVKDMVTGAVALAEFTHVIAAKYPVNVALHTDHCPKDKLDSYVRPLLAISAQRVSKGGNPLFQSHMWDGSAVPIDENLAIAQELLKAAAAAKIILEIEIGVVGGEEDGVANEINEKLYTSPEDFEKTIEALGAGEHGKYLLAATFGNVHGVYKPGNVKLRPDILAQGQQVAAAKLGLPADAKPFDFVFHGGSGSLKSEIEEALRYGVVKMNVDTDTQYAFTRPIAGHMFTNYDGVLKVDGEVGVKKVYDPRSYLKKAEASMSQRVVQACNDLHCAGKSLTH

[14] = test system: H4; test: Luminescence Cell-Based Dose Response HTS to Identify Activators of 5'UTR Stem-Loop Driven Prion Protein mRNA Translation in H4 Neuroglioblastoma Cells. [Related pubchem assays: 1829 (Project Summary), 1814 (Primary HTS)]; assay type: functional; conditions: Homo sapiens
[15] = target: Beta-galactosidase (Escherichia coli, UniProt Q8VNN2); test: Dose response counterscreen for EBI2 assay utilizing the enzyme, b-galactosidase.; assay type: functional
Beta-galactosidase, sequence (Q8VNN2 whole entry): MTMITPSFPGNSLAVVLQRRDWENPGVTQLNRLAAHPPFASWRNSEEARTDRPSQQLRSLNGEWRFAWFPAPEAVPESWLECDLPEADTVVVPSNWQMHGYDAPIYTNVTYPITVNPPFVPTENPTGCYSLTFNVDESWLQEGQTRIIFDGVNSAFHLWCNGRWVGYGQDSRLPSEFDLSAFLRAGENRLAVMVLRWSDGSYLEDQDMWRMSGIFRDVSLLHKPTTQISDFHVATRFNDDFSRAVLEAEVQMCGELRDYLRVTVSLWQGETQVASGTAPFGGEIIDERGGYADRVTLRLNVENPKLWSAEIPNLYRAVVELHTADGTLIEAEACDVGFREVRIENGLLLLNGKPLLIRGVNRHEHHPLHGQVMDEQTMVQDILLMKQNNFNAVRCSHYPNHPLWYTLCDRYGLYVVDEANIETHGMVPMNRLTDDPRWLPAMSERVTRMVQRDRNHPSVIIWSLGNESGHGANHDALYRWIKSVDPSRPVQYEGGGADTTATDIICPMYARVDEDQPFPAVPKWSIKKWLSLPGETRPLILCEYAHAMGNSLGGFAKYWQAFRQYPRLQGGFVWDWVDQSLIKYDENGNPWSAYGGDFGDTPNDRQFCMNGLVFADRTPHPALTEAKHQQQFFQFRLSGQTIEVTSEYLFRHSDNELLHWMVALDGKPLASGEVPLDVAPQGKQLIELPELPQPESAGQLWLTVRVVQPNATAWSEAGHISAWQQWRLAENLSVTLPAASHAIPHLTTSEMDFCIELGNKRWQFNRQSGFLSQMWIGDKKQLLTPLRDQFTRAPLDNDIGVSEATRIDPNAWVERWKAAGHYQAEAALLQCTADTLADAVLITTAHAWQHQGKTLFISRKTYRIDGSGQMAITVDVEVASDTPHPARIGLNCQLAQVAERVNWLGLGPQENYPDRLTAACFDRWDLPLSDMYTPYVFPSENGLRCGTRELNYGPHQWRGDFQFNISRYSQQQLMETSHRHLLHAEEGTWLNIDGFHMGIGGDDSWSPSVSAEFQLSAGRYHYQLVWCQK

[16] = C. albicans growth with fluconazole, confirmation, fluorescence, retest (AID 2467); assay type: functional, cell-based
[17] = target: T2, Protein skinhead-1 (Caenorhabditis elegans, UniProt P34707); assay type: functional
T2 sequence (P34707 whole entry): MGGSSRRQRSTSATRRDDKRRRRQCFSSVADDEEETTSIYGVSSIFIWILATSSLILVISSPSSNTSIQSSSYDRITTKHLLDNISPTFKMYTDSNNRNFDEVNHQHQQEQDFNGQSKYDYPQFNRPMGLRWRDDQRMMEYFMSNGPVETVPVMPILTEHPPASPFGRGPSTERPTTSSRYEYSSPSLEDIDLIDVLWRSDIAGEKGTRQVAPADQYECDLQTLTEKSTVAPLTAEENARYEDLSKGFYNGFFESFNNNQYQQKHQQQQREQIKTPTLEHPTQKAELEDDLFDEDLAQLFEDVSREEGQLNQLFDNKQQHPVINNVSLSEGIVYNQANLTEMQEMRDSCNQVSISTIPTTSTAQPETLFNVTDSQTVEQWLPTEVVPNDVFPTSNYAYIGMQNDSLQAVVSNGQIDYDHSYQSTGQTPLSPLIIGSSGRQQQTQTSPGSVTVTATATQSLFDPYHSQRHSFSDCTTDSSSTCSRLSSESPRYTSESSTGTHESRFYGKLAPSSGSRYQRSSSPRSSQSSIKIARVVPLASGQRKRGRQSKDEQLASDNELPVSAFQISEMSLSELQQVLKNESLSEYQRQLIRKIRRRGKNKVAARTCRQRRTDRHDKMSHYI

[18] = control 3'UTR Renilla luciferase suppression, dose response, counter-screen for Shn3 inhibitor project, cell-based, Clone20-Shn3RL, cherry-picked (AID 624133); assay type: functional
[19] = test system: INS1; test: beta cell apoptosis inhibitors, cytokine rescue, dose response, luminescence, retest (AID 449756); assay type: functional, cell-based; conditions: Rattus norvegicus;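 also: cell death triggered by IL-1 beta plus TNF-alpha plus IFN-gamma mixture; protective hits raise ATP signal compared with cytokine alone wells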
[20] = target: T3, Serine/threonine-protein phosphatase (Candida dubliniensis (strain CD36 / CBS 7987 / NCPF 3949 / NRRLY-17841) (Yeast), UniProt B9W6M3); test: calcineurin pathway inhibitors in yeast reporter, dose response, S. cerevisiae, CDRE-lacZ, luminescence, secondary (AID 2388); assay type: functional, cell-based;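 also: yeast reporter cells carrying a calcineurin-responsive lacZ construct stimulated with calcium chloride; luminescent beta-galactosidase reporter signal in whole cells rather than isolated phosphatase activity; potency for inhibition where a drop in reporter signal means calcineurin blockade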
T3 sequence (B9W6M3 whole entry): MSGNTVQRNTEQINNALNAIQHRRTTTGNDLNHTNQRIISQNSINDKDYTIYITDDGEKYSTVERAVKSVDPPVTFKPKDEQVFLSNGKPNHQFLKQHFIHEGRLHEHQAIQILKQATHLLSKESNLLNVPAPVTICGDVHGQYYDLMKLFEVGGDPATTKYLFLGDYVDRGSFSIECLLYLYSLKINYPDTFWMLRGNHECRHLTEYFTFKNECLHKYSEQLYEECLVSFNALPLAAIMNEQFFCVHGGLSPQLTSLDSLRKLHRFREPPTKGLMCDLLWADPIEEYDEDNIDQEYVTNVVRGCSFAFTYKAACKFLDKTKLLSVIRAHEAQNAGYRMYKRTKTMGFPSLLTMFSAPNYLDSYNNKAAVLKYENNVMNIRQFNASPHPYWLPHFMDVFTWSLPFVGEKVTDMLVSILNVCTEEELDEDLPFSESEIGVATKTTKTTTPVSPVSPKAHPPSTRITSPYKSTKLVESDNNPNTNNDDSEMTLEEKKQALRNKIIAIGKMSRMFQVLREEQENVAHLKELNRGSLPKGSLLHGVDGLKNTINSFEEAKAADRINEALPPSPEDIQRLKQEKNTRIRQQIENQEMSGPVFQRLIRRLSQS

[21] = HepG2 cell cytotoxicity, dose response, cytotoxicity control for Shn3 inhibitor project, CellTiter-Glo, cherry-picked (AID 624134); assay type: functional, cell-based
[22] = inhibitors of control Renilla luciferase reporter, dose response, counter-screen for Shn3 3'UTR targeting project, Clone20-Shn3RL cells, dual-Glo, cherry-pick, set 2 (AID 720724); assay type: functional, cell-based; conditions: Dual-Go Shn3RL
[23] = NIH-3T3 fibroblast cytotoxicity, dose response, cytotoxicity control, cell-based, fluorescence, Alamar Blue, secondary assay (AID 2327); assay type: functional;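 also: NIH-3T3 mouse fibroblasts cultured with fluconazole at 8 µg/mL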
[24] = reduction of Shn3 3'UTR firefly luciferase signal, dose response, Schnurri-3 inhibitor project, cell-based, Clone20 osteoblasts, cherry-pick, set 2 (AID 720490); assay type: functional;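 also: actives lower the luminescence signal as inhibitors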
[25] = target: ATP-dependent molecular chaperone HSP82 (Candida albicans (strain WO-1) (Yeast), UniProt C4YTQ8); test: loss of DOC-induced GRE-beta-galactosidase reporter signal, dose response, Hsp90 inhibitor project, S. cerevisiae, luminescence (AID 2400); assay type: functional, cell-based;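 also: beta-galactosidase luminescence from glucocorticoid response element reporter as proxy for Hsp90 function; inhibitor potency where signal loss means Hsp90 inhibition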
ATP-dependent molecular chaperone HSP82, sequence (C4YTQ8 whole entry): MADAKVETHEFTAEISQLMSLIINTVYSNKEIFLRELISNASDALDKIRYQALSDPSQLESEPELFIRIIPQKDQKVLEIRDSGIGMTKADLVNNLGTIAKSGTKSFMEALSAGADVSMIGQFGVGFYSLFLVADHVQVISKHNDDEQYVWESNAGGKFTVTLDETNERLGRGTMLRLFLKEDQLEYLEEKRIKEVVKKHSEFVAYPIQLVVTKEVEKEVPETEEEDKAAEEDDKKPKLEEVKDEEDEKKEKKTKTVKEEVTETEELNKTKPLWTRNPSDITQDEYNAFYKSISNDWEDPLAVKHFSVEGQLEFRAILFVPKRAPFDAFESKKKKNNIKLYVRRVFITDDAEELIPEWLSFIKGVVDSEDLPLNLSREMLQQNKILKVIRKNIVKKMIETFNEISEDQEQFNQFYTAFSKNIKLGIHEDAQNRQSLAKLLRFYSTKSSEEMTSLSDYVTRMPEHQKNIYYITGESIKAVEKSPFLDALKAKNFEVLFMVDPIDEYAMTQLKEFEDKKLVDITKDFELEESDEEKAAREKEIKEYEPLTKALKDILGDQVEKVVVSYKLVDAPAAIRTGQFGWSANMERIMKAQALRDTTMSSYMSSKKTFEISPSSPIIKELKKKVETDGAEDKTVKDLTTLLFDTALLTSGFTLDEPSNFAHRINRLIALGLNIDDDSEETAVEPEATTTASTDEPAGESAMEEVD

[26] = Shn3 3'UTR reporter inhibitors, dose response, cell-based, Clone20 osteoblasts, firefly luciferase, cherry-picked (AID 624132); assay type: functional;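 also: firefly luciferase luminescence from reporter carrying the Shn3 3'UTR in osteoblasts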
[27] = target: T3, Serine/threonine-protein phosphatase; test: Fluorescence Cell-Based Secondary Assay to Identify Inhibitors of Calcineurin. [Related pubchem assays (depositor defined):AID1979, AID2007]; assay type: functional

CCCn1c(=N)n(CC(O)COc2ccc(C)cc2)c2ccccc21 (configuration not stated)
inactive: IC50 [2] > 47.1 µM | EC50 [3] > 53 µM
active: AC50 [1] 24.6 µM

CCN(CC(O)CON=C1c2ccccc2-c2ccccc21)S(=O)(=O)c1ccc(Cl)cc1 (configuration not stated)
active: AC50 [4] 28.6 µM | AC50 [6] 10.1 µM | EC50 [7] 2.15 µM | AC50 [8] 16.3 µM | AC50 [9] 29.3 µM | AC50 [10] 5.8 µM
> 60 µM (not active): EC50 [5]

Cc1ccc(C2CC(c3ccccc3)=NN2c2ccccc2)o1 (configuration not stated)
> 120 µM (not active): EC50 [11]
active: EC50 [12] 111 µM | IC50 [13] > 0.37 µM | EC50 [14] 27.9 µM

Cc1c(C(=O)N2CCN(c3ncccn3)CC2)oc2ccc(Cl)cc12
inactive: IC50 [15] > 80 µM

Cc1nc2ccccc2cc1OCc1ccc(F)cc1
active: EC50 [16] 1.58 µM | IC50 [17] 12.2 µM | AC50 [18] 22.1 µM | AC50 [19] 4.84 µM | AC50 [21] 41.7 µM | AC50 [22] 4.87 µM | AC50 [24] 2.05 µM | EC50 [25] 21.1 µM | AC50 [26] 1.7 µM
inactive: EC50 [20] > 180 µM | EC50 [23] > 160 µM | EC50 [27] > 285 µM
